Data on six compounds can be found in patent US20080064667A1, “OXAZOLE DERIVATIVES OF TETRACYCLINES” (Wyeth, priority 2003, published 2008).

Values after ≈ are worked out from the molar mass of the structure shown.

Common to all, as to assay: MIC, broth microdilution (NCCLS)
Holding throughout (assay type): cell-based

The test system of assay [1] is E. coli GC2203 (ATCC Control). The conditions noted are these: Escherichia coli, Mueller-Hinton II broth, 18-22 hours at 35° C. The method, then:
(§1) Methods for in Vitro Antibacterial Evaluation
(§2) The Minimum Inhibitory Concentration (MIC)
(§3) Antimicrobial susceptibility testing. The in vitro activities of the antibiotics are determined by the broth microdilution method as recommended by the National Committee for Clinical Laboratory Standards (NCCLS) (1). Mueller-Hinton II broth (MHBII)(BBL Cockeysville, Md.) is the medium employed in the testing procedures. Microtiter plates containing serial dilutions of each antimicrobial agent are inoculated with each organism to yield the appropriate density (10^5 CFU/ml) in a 100 μl final volume. The plates are incubated for 18-22 hours at 35° C. in ambient air.
(§4) 1. NCCLS. 2000. Methods for Dilution Antimicrobial Susceptibility Tests for Bacteria That Grow Aerobically; Approved Standards: M7-A5, vol. 20. National Committe for Clinical Laboratory Standards, Wayne, Pa.

The subject of assay [2] is E. coli GC4559 (parent GC4560). Conditions: Escherichia coli, Mueller-Hinton II broth, 18-22 hours at 35° C. The method, then: as §1, §2, §3, §4
The subject of assay [3] is S. pneumoniae* GC1894 (Clinical). Conditions: Streptococcus pneumoniae, Mueller-Hinton II broth, 18-22 hours at 35° C. The method, then:
as §1, §2, §3, §4

Assay [4] deals with S. pneumoniae* GC4465 (Clinical). Conditions: Streptococcus pneumoniae, Mueller-Hinton II broth, 18-22 hours at 35° C. The method, then: as §1, §2, §3, §4
The test system of assay [5] is H. influenzae<> GC6896 (ATCC Control). The conditions noted are these: Haemophilus influenzae, Mueller-Hinton II broth, 18-22 hours at 35° C. As to the method:
as §1, §2, §3, §4

The subject of assay [6] is S. pyogenes* GC4563 (Clinical). The conditions noted are these: Streptococcus pyogenes, Mueller-Hinton II broth, 18-22 hours at 35° C. As to the method: as §1, §2, §3, §4
Assay [7] concerns E. faecalis GC4555 (ATCC Control). Conditions: Enterococcus faecalis, Mueller-Hinton II broth, 18-22 hours at 35° C. The method, then:
as §1, §2, §3, §4

Assay [8] concerns S. aureus GC4536 (Smith MP -In Vivo). The conditions noted are these: Staphylococcus aureus, Mueller-Hinton II broth, 18-22 hours at 35° C. As to the method:
as §1, §2, §3, §4

Assay [9] deals with S. aureus GC2216 (ATCC Control). The conditions noted are these: Staphylococcus aureus, Mueller-Hinton II broth, 18-22 hours at 35° C. The method, then: as §1, §2, §3, §4
In assay [10] the test system is M. catarrhalis* GC6907 (Clinical). The conditions noted are these: Moraxella catarrhalis, Mueller-Hinton II broth, 18-22 hours at 35° C. The method, then: as §1, §2, §3, §4
Assay [11] deals with S. aureus GC1131 (Clinical). The conditions noted are these: Staphylococcus aureus, Mueller-Hinton II broth, 18-22 hours at 35° C. As to the method: as §1, §2, §3, §4
The subject of assay [12] is S. aureus GC1079 (tet(K)). The conditions noted are these: Staphylococcus aureus, Mueller-Hinton II broth, 18-22 hours at 35° C. As to the method:
as §1, §2, §3, §4

The subject of assay [13] is S. aureus GC6466 (tet(M)). Conditions: Staphylococcus aureus, Mueller-Hinton II broth, 18-22 hours at 35° C. As to the method:
as §1, §2, §3, §4

Assay [14] relates to C. albicans GC3066 ATCC (Control). Conditions: Candida albicans, Mueller-Hinton II broth, 18-22 hours at 35° C. The method, then: as §1, §2, §3, §4
In assay [15] the test system is E. faecalis GC2242 (Van-resistant). The conditions noted are these: Enterococcus faecalis, Mueller-Hinton II broth, 18-22 hours at 35° C. As to the method:
as §1, §2, §3, §4

For assay [16], the system named is E. coli GC2270 (tet(M)). Conditions: Escherichia coli. As to the method: as §1, §2, §3, §4
The subject of assay [17] is E. coli GC1073 (tet(B)). The conditions noted are these: Escherichia coli. The method, then:
as §1, §2, §3, §4

Assay [18] relates to E. coli GC4560 (IMP mutant). The conditions noted are these: Escherichia coli. The method, then: as §1, §2, §3, §4

For `COc1ccccc1/C=C/c1nc2cc(N(C)C)c3c(c2o1)C(=O)C1=C(O)[C@]2(O)C(=O)C(C(N)=O)=C(O)[C@@H](N(C)C)[C@@H]2C[C@@H]1C3` [Example 28, (6aR,7aS,8S,11aS)-5,8-bis(dimethylamino)-9,11a,12-trihydroxy-2-[(E)-2-(2-methoxyphenyl)ethenyl]-11,13-dioxo-6,6a,7,7a,8,11,11a,13-octahydrotetraceno[2,1-d][1,3]oxazole-10-carboxamide], the MIC is over 64 µg/mL in assay [1]; over 64 µg/mL in [2]; 64 µg/mL (≈ 104 µM) in assay [3]; 32 µg/mL (≈ 52.1 µM) in assay [4]; over 64 µg/mL in [5]; 16 µg/mL (≈ 26 µM) in [6]. Further, the MIC in assay [7] was 16 µg/mL (≈ 26 µM); in assay [8], 16 µg/mL (≈ 26 µM); in assay [9], 8 µg/mL (≈ 13 µM); in [10] it was 64 µg/mL (≈ 104 µM); in assay [11] it was 8 µg/mL (≈ 13 µM); in assay [12], 16 µg/mL (≈ 26 µM). The MIC in assay [13] was 8 µg/mL (≈ 13 µM); in [14], over 64 µg/mL; in assay [15], 8 µg/mL (≈ 13 µM); in assay [16], over 64 µg/mL; in assay [17] it was over 64 µg/mL; in assay [18] it was 16 µg/mL (≈ 26 µM).

As for `CN(C)c1cc2nc(C(C)(C)C)oc2c2c1C[C@H]1C[C@H]3[C@H](N(C)C)C(O)=C(C(N)=O)C(=O)[C@@]3(O)C(O)=C1C2=O` [Example 4, (6aR,7aS,8S,11aS)-2-tert-butyl-5,8-bis(dimethylamino)-9,11a,12-trihydroxy-11,13-dioxo-6,6a,7,7a,8,11,11a,13-octahydrotetraceno[2,1-d][1,3]oxazole-10-carboxamide], the MIC is over 64 µg/mL in [1]; over 64 µg/mL in [2]; 32 µg/mL (≈ 59.4 µM) in [3]; 16 µg/mL (≈ 29.7 µM) in assay [4]; over 64 µg/mL in assay [5]; 16 µg/mL (≈ 29.7 µM) in assay [6]. Moreover, the MIC in assay [7] stood at 32 µg/mL (≈ 59.4 µM); in [8], 32 µg/mL (≈ 59.4 µM); in [9], 32 µg/mL (≈ 59.4 µM); in assay [10], 16 µg/mL (≈ 29.7 µM); in [11], 16 µg/mL (≈ 29.7 µM); in [12] it was 16 µg/mL (≈ 29.7 µM). Further, the MIC is 32 µg/mL (≈ 59.4 µM) in [13]; over 64 µg/mL in assay [14]; 32 µg/mL (≈ 59.4 µM) in assay [15]; over 64 µg/mL in [16]; over 64 µg/mL in assay [17]; 16 µg/mL (≈ 29.7 µM) in assay [18].

In the case of `CN(C)c1cc2nc(/C=C/c3ccc(F)cc3)oc2c2c1C[C@H]1C[C@H]3[C@H](N(C)C)C(O)=C(C(N)=O)C(=O)[C@@]3(O)C(O)=C1C2=O` [Example 29, (6aR,7aS,8S,11aS)-5,8-bis(dimethylamino)-2-[(E)-2-(4-fluorophenyl)ethenyl]-9,11a,12-trihydroxy-11,13-dioxo-6,6a,7,7a,8,11,11a,13-octahydrotetraceno[2,1-d][1,3]oxazole-10-carboxamide], the MIC in assay [1] is over 64 µg/mL; in [2], over 64 µg/mL; in assay [3], 32 µg/mL (≈ 53.1 µM); in assay [4], 32 µg/mL (≈ 53.1 µM); in assay [5], over 64 µg/mL; in assay [6], 16 µg/mL (≈ 26.6 µM). Moreover, the MIC in [7] is 8 µg/mL (≈ 13.3 µM); in [8], 8 µg/mL (≈ 13.3 µM); in assay [9], 8 µg/mL (≈ 13.3 µM); in [10], 16 µg/mL (≈ 26.6 µM); in assay [11] it was 8 µg/mL (≈ 13.3 µM); in [12] it was 8 µg/mL (≈ 13.3 µM). Besides, the MIC is 8 µg/mL (≈ 13.3 µM) in [13]; over 64 µg/mL in assay [14]; 8 µg/mL (≈ 13.3 µM) in [15]; over 64 µg/mL in [16]; over 64 µg/mL in assay [17]; 8 µg/mL (≈ 13.3 µM) in [18].

For the compound `CN(C)c1cc2nc(-c3ccco3)oc2c2c1C[C@H]1C[C@H]3[C@H](N(C)C)C(O)=C(C(N)=O)C(=O)[C@@]3(O)C(O)=C1C2=O` [Example 20, (6aR,7aS,8S,1aS)-5,8-bis(dimethylamino)-2-(2-furyl)-9,11a,1 2-trihydroxy-11,13-dioxo-6,6a,7,7a,8,11,11a,13-octahydrotetraceno[2,1-d][1,3]oxazole-10-carboxamide], the MIC was over 64 µg/mL in [1]; over 64 µg/mL in [2]; 64 µg/mL (≈ 117 µM) in assay [3]; over 64 µg/mL in assay [4]; over 64 µg/mL in assay [5]; 32 µg/mL (≈ 58.3 µM) in assay [6]. The MIC stood at 64 µg/mL (≈ 117 µM) in [7]; 64 µg/mL (≈ 117 µM) in assay [8]; 32 µg/mL (≈ 58.3 µM) in [9]; 32 µg/mL (≈ 58.3 µM) in assay [10]; 32 µg/mL (≈ 58.3 µM) in [11]; 32 µg/mL (≈ 58.3 µM) in [12]. In addition, the MIC in [13] was 32 µg/mL (≈ 58.3 µM); in assay [14], over 64 µg/mL; in [15] it was 32 µg/mL (≈ 58.3 µM); in [16] it was over 64 µg/mL; in [17], over 64 µg/mL; in assay [18], 32 µg/mL (≈ 58.3 µM).

Take `COc1cc(OC)c(-c2nc3cc(N(C)C)c4c(c3o2)C(=O)C2=C(O)[C@]3(O)C(=O)C(C(N)=O)=C(O)[C@@H](N(C)C)[C@@H]3C[C@@H]2C4)c(OC)c1` [Example 15, (6aR,7aS,8S,11aS)-5,8-bis(dimethylamino)-9,11a,12-trihydroxy-11,13-dioxo-2-(2,4,6-trimethoxyphenyl)-6,6a,7,7a,8,11,11a,13-octahydrotetraceno[2,1-d][1,3]oxazole-10-carboxamide]: the MIC in assay [1], in [2], in assay [3], in assay [4], in assay [5] and in [6] was over 64 µg/mL throughout. Also, the MIC in assay [7], in [8], in assay [9], in assay [10], in [11] and in assay [12] was 64 µg/mL (≈ 98.7 µM) in each case. The MIC in assay [13] is 64 µg/mL (≈ 98.7 µM); in [14] it was over 64 µg/mL; in assay [15], 64 µg/mL (≈ 98.7 µM); in assay [16], over 64 µg/mL; in [17], over 64 µg/mL; in [18] it was 32 µg/mL (≈ 49.3 µM).

Take `CN(C)c1cc2nc(-c3cc(C(C)(C)C)ccc3O)oc2c2c1C[C@H]1C[C@H]3[C@H](N(C)C)C(O)=C(C(N)=O)C(=O)[C@@]3(O)C(O)=C1C2=O` [Example 10, (6aR,7aS,8S,11aS)-2-(5-tert-butyl-2-hydroxyphenyl)-5,8-bis(dimethylamino)-9,11a,12-trihydroxy-11,13-dioxo-6,6a,7,7a,8,11,11a,13-octahydrotetraceno[2,1-d][1,3]oxazole-10-carboxamide]: the MIC in assay [1] is over 64 µg/mL; in assay [2], over 64 µg/mL; in [3], 8 µg/mL (≈ 12.7 µM); in assay [4], 16 µg/mL (≈ 25.4 µM); in [5], over 64 µg/mL; in assay [6] it was 16 µg/mL (≈ 25.4 µM). The MIC in assay [7] is 16 µg/mL (≈ 25.4 µM); in assay [8], 16 µg/mL (≈ 25.4 µM); in assay [9], 16 µg/mL (≈ 25.4 µM); in assay [10] it was over 64 µg/mL; in assay [11] it was 8 µg/mL (≈ 12.7 µM); in [12], 16 µg/mL (≈ 25.4 µM). In addition, the MIC in [13] is 16 µg/mL (≈ 25.4 µM); in assay [14], over 64 µg/mL; in [15], 8 µg/mL (≈ 12.7 µM); in assay [16], over 64 µg/mL; in assay [17] it was over 64 µg/mL; in assay [18], 32 µg/mL (≈ 50.7 µM).
